From US20250074871A1, “PHENETHYLAMINES AND METHODS OF PREPARATION THEREOF” (priority 2022, published 2025)
Where two headings read alike, the source gives them in different places.

Tests used:
5-HT2A receptor = target: T1, 5-HT2A receptor (Homo sapiens, UniProt P28223); assay: 5-HT2A Gq dissociation BRET functional assay; type: cell-based; settings: for 5-HT2A BRET Eff %: normalized to % 5-HT stimulation
T1 construct: expressed in transfected cells; host or cells: HEK293T

5-HT2B receptor = target: T2, 5-HT2B receptor (Homo sapiens, UniProt P41595); assay: 5-HT2B Gq dissociation BRET functional assay; type: cell-based; settings: Table 2; for EC50: at least three replicate trials; for 5-HT2B BRET Eff %: normalized to % 5-HT stimulation
T2 construct: expressed in transfected cells; host or cells: HEK293T
T2 sequence (P41595 whole entry): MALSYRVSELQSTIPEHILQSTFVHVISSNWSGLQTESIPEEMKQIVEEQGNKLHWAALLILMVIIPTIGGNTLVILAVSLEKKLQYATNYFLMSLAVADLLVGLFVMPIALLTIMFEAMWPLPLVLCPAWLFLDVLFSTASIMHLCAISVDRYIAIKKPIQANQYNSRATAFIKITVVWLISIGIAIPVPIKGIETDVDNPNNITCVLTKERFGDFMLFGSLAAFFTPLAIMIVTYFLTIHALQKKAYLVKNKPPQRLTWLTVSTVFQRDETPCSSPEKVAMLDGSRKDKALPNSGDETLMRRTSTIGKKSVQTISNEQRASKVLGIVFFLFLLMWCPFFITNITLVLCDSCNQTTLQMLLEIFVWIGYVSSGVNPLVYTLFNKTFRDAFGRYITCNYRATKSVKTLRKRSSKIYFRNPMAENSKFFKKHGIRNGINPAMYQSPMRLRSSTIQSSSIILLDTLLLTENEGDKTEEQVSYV

5-HT2C receptor = target: T3, 5-HT2C receptor (Homo sapiens, UniProt P28335); assay: cell-based; type: cell-based; settings: Table 2; for EC50: at least three replicate trials, read-out: 5-HT2C BRET EC50; for 5-HT2C BRET Eff %: normalized to % 5-HT stimulation
T3 construct: expressed in transfected cells; host or cells: HEK293T
T3 sequence (P28335 33-458): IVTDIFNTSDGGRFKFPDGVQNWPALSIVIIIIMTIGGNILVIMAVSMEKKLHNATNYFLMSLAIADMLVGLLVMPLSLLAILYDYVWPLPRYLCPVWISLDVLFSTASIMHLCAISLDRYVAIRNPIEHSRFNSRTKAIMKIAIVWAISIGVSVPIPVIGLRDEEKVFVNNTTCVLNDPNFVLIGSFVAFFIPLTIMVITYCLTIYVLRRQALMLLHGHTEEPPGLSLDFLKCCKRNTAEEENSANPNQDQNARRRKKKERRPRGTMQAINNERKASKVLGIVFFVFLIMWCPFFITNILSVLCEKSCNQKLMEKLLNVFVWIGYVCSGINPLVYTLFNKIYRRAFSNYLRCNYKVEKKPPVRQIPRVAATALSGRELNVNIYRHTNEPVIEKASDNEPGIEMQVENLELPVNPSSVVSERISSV

[1] = target: T4, human ether-a-go-go-related gene (hERG) K+ channel (Homo sapiens, UniProt Q12809); assay: Eurofins hERG Qube APC Assay; type: cell-based; settings: for IC50 (hERG)/EC50 (5-HT2A) ratio: Table 4
T4 construct: Eurofins
T4 sequence (Q12809 whole entry): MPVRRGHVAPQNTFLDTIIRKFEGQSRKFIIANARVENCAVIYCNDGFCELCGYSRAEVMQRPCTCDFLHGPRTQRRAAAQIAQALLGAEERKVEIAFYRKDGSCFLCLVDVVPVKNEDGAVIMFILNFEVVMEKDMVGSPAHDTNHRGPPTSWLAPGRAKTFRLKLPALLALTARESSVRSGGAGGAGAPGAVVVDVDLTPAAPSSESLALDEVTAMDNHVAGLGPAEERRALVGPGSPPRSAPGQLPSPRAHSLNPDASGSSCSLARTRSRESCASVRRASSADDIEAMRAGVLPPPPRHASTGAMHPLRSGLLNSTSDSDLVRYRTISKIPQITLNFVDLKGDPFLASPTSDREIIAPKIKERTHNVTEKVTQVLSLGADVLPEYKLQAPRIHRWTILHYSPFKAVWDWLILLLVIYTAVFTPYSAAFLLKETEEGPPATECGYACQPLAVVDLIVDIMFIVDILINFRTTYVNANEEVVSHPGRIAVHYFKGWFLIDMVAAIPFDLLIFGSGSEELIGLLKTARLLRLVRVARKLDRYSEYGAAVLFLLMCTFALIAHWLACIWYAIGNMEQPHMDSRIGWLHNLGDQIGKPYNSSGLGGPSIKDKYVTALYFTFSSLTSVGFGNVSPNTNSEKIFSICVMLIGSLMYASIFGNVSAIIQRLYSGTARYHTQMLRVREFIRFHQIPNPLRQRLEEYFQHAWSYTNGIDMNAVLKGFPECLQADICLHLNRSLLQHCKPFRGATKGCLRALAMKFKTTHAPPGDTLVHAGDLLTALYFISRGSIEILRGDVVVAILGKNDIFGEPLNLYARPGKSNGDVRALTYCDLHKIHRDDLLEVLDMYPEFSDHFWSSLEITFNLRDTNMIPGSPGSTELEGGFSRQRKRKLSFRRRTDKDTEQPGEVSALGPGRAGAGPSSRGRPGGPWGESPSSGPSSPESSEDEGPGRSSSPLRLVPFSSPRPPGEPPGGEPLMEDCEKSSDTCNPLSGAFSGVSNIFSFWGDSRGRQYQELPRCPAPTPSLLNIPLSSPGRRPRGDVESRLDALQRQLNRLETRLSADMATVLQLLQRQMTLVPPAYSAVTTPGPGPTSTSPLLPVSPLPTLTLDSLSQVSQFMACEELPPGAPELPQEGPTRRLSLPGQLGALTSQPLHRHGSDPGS
From the text: As used herein and unless otherwise specified, the term “hERG risk” refers to the risk of a compound potentially inhibiting the human ether-a-go-go-related gene (hERG) K^+ channel, thereby leading to QT prolongation.
As a result of, many compounds disclosed in Table 1 and Table 2 were screened for the potential of “hERG risk” using pharmacological assays (e.g. Eurofins™ hERG Qube APC Assay). […].

mice = assay: head-twitch response (HTR) in mice; type: in vivo, male C57BL/6J mice; settings: Mus musculus; mice
Experimental: As used herein and unless otherwise specified, the term “HTR” refers to head-twitch response, which is a measurement of 5-HT2A activation in vivo.
As used herein and unless otherwise specified, the term “mice” refers to male C57BL/6J mice (6-8 weeks old).
HTR was assessed using a head-mounted neodymium magnet and a magnetometer detection coil, as described in Halberstadt et al., Psychopharmacology (Berl.), 2013, 227(4): 727-739. Table 8 below summarizes the ED50 in head twitch in mice of various compounds disclosed herein as compared to psilocybin. FIG. 3 illustrates the HTR relative to dose for compound 109: […]

[2] = 5-HT2A BRET EC50 (nM), Table 2, at least three replicate trials
[3] = Table 2, at least three replicate trials, read-out: 5-HT2A BRET EC50

T1 sequence (P28223 whole entry): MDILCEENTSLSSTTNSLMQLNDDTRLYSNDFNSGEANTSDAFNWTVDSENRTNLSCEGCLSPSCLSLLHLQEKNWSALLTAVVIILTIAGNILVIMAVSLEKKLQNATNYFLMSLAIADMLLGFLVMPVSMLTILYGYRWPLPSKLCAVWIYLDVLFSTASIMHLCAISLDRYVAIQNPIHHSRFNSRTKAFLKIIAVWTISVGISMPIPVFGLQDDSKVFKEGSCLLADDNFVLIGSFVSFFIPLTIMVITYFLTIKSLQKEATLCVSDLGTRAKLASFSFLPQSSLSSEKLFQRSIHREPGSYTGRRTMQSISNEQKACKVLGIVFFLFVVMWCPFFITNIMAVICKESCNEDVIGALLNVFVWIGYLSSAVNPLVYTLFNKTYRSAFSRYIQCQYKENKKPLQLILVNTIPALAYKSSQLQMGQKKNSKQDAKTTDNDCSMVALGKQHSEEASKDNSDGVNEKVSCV

Row | Compound | EC50 (5-HT2A receptor; [2]) [nM] | EC50 (5-HT2A receptor; EC50 BRET 2A, Table 4, unit inferred) [nM] | 5-HT2A BRET Eff % (5-HT2A receptor; Table 2) [%] | 5-HT2B BRET EC50 (nM) / Eff % (5-HT2B receptor) | EC50 (5-HT2C receptor) [nM] | 5-HT2C BRET Eff % (5-HT2C receptor) [%] | IC50 [1] [nM] | IC50 (hERG)/EC50 (5-HT2A) ratio [1] | ED50 (mice) [mg/kg] | EC50 (5-HT2A receptor; [3]) [nM] | EC50 (5-HT2B receptor; read-out: 5-HT2B BRET EC50) [nM] | 5-HT2B BRET Eff % (5-HT2B receptor) [%] | EC50 (5-HT2B receptor; 5-HT2B BRET EC50 (nM)) [nM] | EC50 (5-HT2A receptor; Table 4, unit inferred, read-out: EC50 BRET 2A) [nM] | hERG risk potential ([1]; based on IC50 (hERG)/EC50 (5-HT2A) ratio)
1 | Oc1cc(Cl)ccc1CCNCc1ccccc1O [Cpd #131] | 2.4 | 2.1 | 93 | Inactive | 1.8 | 103 | 1310 | 624 | 1.24 |  |  |  |  |  | 
2 | N#Cc1ccc(CCNCc2ccccc2O)c(C(F)(F)F)c1 [Cpd #137] | 312 |  | 89 | Inactive | 56.5 | 83 |  |  |  |  |  |  |  |  | 
3 | COc1cc(C#N)ccc1CCNCc1cccs1 [Cpd #138] |  |  | 75 |  | 198 | 102 |  |  |  | 187 | 0.03 | −2 |  |  | 
4 | N#Cc1ccc(CCNCc2ccsc2Cl)c(O)c1 [Cpd #139] |  |  | 80 | Inactive | 4670 | 91 |  |  |  | 1260 |  |  |  |  | 
5 | COc1cc(Oc2ccccc2)ccc1CCN [Cpd #140] | 2890 |  | 87 | Inactive | 796 | 107 |  |  |  |  |  |  |  |  | 
6 | COc1cc2c(cc1CCNCc1ccccc1O)CCO2 [Cpd #141] | 2.3 |  | 96 |  | 1.6 | 107 |  |  |  |  |  | 59 | 78.5 |  | 
7 | CSc1ccccc1CNC[C@@H]1CCc2cc(C#N)cc(O)c21 [Cpd #142] |  |  | 68 |  | 17600 | 108 |  |  |  | 1960 | 18.5 | −20 |  |  | 
8 | CN(C)CCc1c[nH]c2cccc(OP(=O)(O)O)c12 [Psilocybin, psilocybin, reference compound] |  |  |  |  |  |  |  |  | 0.38 |  |  |  |  |  | 
9 | Oc1ccccc1CNCC(O)c1ccc(C(F)(F)F)cc1OCc1ccccc1 (centres unmarked) [Reference Compound 1a, reference compound] |  |  | 91 |  | 326 | 105 | 2300 | 5 |  | 451 | 342 | 56 |  | 451 | High (compounds exhibiting a IC50 (hERG) /EC50 (5-HT2A) ratio of less than or equal to 150 are generally indicative of high hERG risk potential)
